Assay results from patent publication US8945597B2, “Botanical insecticides” (priority 2012, dated 2015).

The molecules below were run on planthopper nymphs (nilaparvata legen) (assay: Insecticidal efficacy test against planthopper nymphs (POTTER sprayer)). Details: concentration 20 mg/L; sprayed; mid 3rd instar nymphs; mortality after 72 hours.
Type: in vivo
Description: Insecticidal efficacy test against planthopper nymphs (nilaparvata legen). Some rice seedling leaves are mounted with white quartz sand in a Petri dish with 5 cm diameter containing 5 ml water. Planthoppers nymphs of mid 3rd instar were anesthetized by CO2. 20-30 anesthetized nymphs are transferred to each Petri dish and placed under the POTTER sprayer. Same amount of testing chemical is sprayed into each Petri dish and covered with transparent plastic cup. Use nitenpyram 20 mg/L for comparison and water as control.

**Q.** Which MOTALITY % does the source give for `CCN(Cc1ccc(Cl)nc1)/C(=C/[N+](=O)[O-])NC` [Nitenpyram] here?
**A.** Its MOTALITY % is 100%.

The molecules below were run on Aphid nymphs (Aphis medicagini) (assay: Insecticidal efficacy test against aphid nymphs (leaf disc dip)). Details: concentration 20 mg/L; leaf disc dipped 5 seconds; mortality after 24 hours.
Type: in vivo
Description: Insecticidal Efficacy Test Against Aphid Nymphs (Aphis medicagini)
Take the first preferred embodiment, diluted in water in two different concentrations, A with 1% weight content of active ingredients, B with 0.1% active ingredients. Vicia leaf cut into round disc in 2 cm diameter, back up placed on a small cotton ball, and then mounted in a Petri dish, 5 ml water is added. Mature aphids are transferred onto the leaf disc to hatch aphid nymphs. Mature aphids are removed after 24 hours and 20-30 aphid nymphs are left on the leave disc and continue to culture for one day. The leave disc with aphid nymphs is merged into solution A and B for 5 seconds, excessive fluid on the leaf surface is absorbed by paper tower. Leaf disc is then mounted back to the cotton ball for another 24 hours observation. Use Nitenpyram 20 mg/L for comparison and water as control.

**Q.** `CCN(Cc1ccc(Cl)nc1)/C(=C/[N+](=O)[O-])NC` [Nitenpyram] was tested. Which MOTALITY % did it give?
**A.** The MOTALITY % was 100%.

The molecules below were run on pest insects (assay: Insecticidal properties of terpenes/terpenoids (test not described)). Details: tested and proved; test details not given.

**Q.** Which insecticidal properties does the source give for pinene here?
**A.** Its insecticidal properties is “significant insecticidal properties”.

**Q.** With `C=CCS[S@@+]([O-])CC=C` (stereo in doubt) [allicin] as the molecule, how does the insecticidal properties read?
**A.** The insecticidal properties was “significant insecticidal properties”.

**Q.** ocimene was tested. Which insecticidal properties did it give?
**A.** The insecticidal properties was “significant insecticidal properties”.

**Q.** How did the insecticidal properties turn out when `Cc1ccc(C(C)C)cc1` [p-cymene] was run?
**A.** The insecticidal properties was “significant insecticidal properties”.

**Q.** How did the insecticidal properties turn out when `CC(C)[C@@H]1CC[C@@H](C)C[C@H]1O` [3-p-menthanol] was run?
**A.** The insecticidal properties was “significant insecticidal properties”.

**Q.** Which insecticidal properties does the source give for `C=C1CC/C=C(\C)CC[C@@H]2[C@@H]1CC2(C)C` [β-caryophyllene] here?
**A.** The insecticidal properties was “significant insecticidal properties”.

**Q.** `CC12CCC(CC1)C(C)(C)O2` [1,8-cineole] was tested. Which insecticidal properties did it give?
**A.** The insecticidal properties was “significant insecticidal properties”.

**Q.** With `C[C@@H]1CC[C@H]2C(C)(C)C3C[C@@]12CC[C@@]3(C)O` [Embodiment 8-epicedrol, 8-epicedrol] as the molecule, how does the insecticidal properties read?
**A.** Its insecticidal properties is “significant insecticidal properties”.
